# In patent US8846653B2, “Delta-tocotrienol treatment and prevention of pancreatic cancer” (University of South Florida, priority 2006, dated 2014):
# What was measured:
# Type in all cases: cell-based, human
# MiaPaCa-2 cells = test: MTT assay of MiaPaCa2 cultures, single 50 μM dose; design: rel amt (relative value set to the control): unit not given here; settings: MiaPaCa2, 50 μM; for MTT assay result, av-blank: average minus blank; for MTT assay result, av: average of 7 runs
# Description: MiaPaCa-2, BxPc-3, and HPDE6-C7 cells were cultured as described above, and treated with a single 50 μM dose of vehicle (ethanol extracted olive oil), T3 alpha (alpha tocotrienol), T3 beta (beta tocotrienol), T3 gamma (gamma tocotrienol), T3 delta (delta tocotrienol), T alpha (alpha tocopherol), T beta (beta tocopherol), TS (tocopherol succinate), GG (geranylgeraniol), SA (succinic acid). A control culture (vehicle only with no treatment) was grown alongside the treatments for comparison. Cell viability was measured using MTT assay at preselect times of 48 or 120 hours after treatment.
# [1] = test system: SW1990 pancreatic cancer cells; test: MTS assay of SW1990 cultures, single 50 μM dose; settings: SW1990, 50 μM
# Description: SW1990 pancreatic cancer cells […] were cultured in complete DMEM media containing 10% fetal bovine serum (FBS) and 1% penicillin-streptomycin, and 1% L-glutamine. BxPc-3 pancreatic cancer cells were cultured in complete RPMI media containing 10% fetal bovine serum (FBS), and 1% penicillin-streptomycin, 1% HEPES buffer, 1% sodium pyruvate and 1% L-glutamine. HPDE6-C7 cells were cultured in serum-free keratinocyte SFM media. All cells were maintained at 37° C. in a humidified incubator with 5% CO2. The cells were treated with a single 50 μM dose of vehicle (ethanol extracted olive oil), T3 alpha (alpha tocotrienol), T3 beta (beta tocotrienol), T3 gamma (gamma tocotrienol), T3 delta (delta tocotrienol), T alpha (alpha tocopherol), T beta (beta tocopherol), TS (tocopherol succinate), GG (geranylgeraniol), SA (succinic acid). A control culture (i.e., only vehicle with no treatment) was grown alongside the treatments for comparison. Cell viability was measured using MTS assay at preselect times of 24, 48, or 72 hours after treatment.
# BXPC3 cells = test: MTT assay of BXPC3 cultures, single 50 μM dose; design: MTT assay result, run 1 / MTT assay result, run 2 / MTT assay result, run 3 / MTT assay result, run 4 / MTT assay result, run 5 / MTT assay result, run 6 / MTT assay result, run 7 / MTT assay result, av (average) / MTT assay result, av-blank / MTT assay result, av: unit not given here; settings: BXPC3, 50 μM; for MTT assay result, av-blank: average minus blank; for MTT assay result, av (average) / MTT assay result, av: average of 7 runs
# Description: BXPC3 cells were cultured in complete […] media containing 10% fetal bovine serum (FBS) and 1% penicillin-streptomycin, and 1% L-glutamine. BxPc-3 pancreatic cancer cells were cultured in complete RPMI media containing 10% fetal bovine serum (FBS), and 1% penicillin-streptomycin, 1% HEPES buffer, 1% sodium pyruvate and 1% L-glutamine HPDE6-C7 cells were cultured in serum-free keratinocyte SFM media. All cells were maintained at 37° C. in a humidified incubator with 5% CO2. The cells were treated with a single 50 μM dose of vehicle (vehicle only, may be a solvent), T3 alpha (alpha tocotrienol), T3 beta (beta tocotrienol), T3 gamma (gamma tocotrienol), T3 delta (delta tocotrienol), T alpha (alpha tocopherol), T beta (beta tocopherol), TS (tocopherol succinate), GG (geranylgeraniol), SA (succinic acid). A control (no treatment) culture was grown alongside the treatments for comparison. Cell viability was measured using MTT assay at preselect times of 48 or 120 hours after treatment.
smiles,measurement,setting,value
"CC(C)=CCC/C(C)=C/CC/C(C)=C/CC[C@]1(C)CCc2cc(O)cc(C)c2O1 [T3 delta, delta tocotrienol]",rel amt (relative value set to the control),MiaPaCa-2 cells; 48 hours,70
same,"MTT assay result, av-blank",MiaPaCa-2 cells; 48 hours,0.217
same,"MTT assay result, av",MiaPaCa-2 cells; 48 hours,0.263
same,"MTT assay result, run 1",MiaPaCa-2 cells; 48 hours,0.276
same,"MTT assay result, run 2",MiaPaCa-2 cells; 48 hours,0.284
same,"MTT assay result, run 3",MiaPaCa-2 cells; 48 hours,0.262
same,"MTT assay result, run 4",MiaPaCa-2 cells; 48 hours,0.239
same,"MTT assay result, run 5",MiaPaCa-2 cells; 48 hours,0.275
same,"MTT assay result, run 6",MiaPaCa-2 cells; 48 hours,0.239
same,"MTT assay result, run 7",MiaPaCa-2 cells; 48 hours,0.269
same,rel amt (relative value set to the control),MiaPaCa-2 cells; 120 hours (5 days),72
same,"MTT assay result, av-blank",MiaPaCa-2 cells; 120 hours (5 days),1.304
same,"MTT assay result, av",MiaPaCa-2 cells; 120 hours (5 days),1.356
same,"MTT assay result, run 1",MiaPaCa-2 cells; 120 hours (5 days),1.344
same,"MTT assay result, run 2",MiaPaCa-2 cells; 120 hours (5 days),1.314
same,"MTT assay result, run 3",MiaPaCa-2 cells; 120 hours (5 days),1.27
same,"MTT assay result, run 4",MiaPaCa-2 cells; 120 hours (5 days),1.337
same,"MTT assay result, run 5",MiaPaCa-2 cells; 120 hours (5 days),1.579
same,"MTT assay result, run 6",MiaPaCa-2 cells; 120 hours (5 days),1.308
same,"MTT assay result, run 7",MiaPaCa-2 cells; 120 hours (5 days),1.341
same,rel amnt (relative value set to the control),[1]; 24 hours,97
same,"MTS assay result, run 1",[1]; 24 hours,0.158
same,"MTS assay result, run 2",[1]; 24 hours,0.149
same,"MTS assay result, run 3",[1]; 24 hours,0.157
same,"MTS assay result, run 4",[1]; 24 hours,0.126
same,"MTS assay result, run 5",[1]; 24 hours,0.147
same,"MTS assay result, run 6",[1]; 24 hours,0.135
same,"MTS assay result, run 7",[1]; 24 hours,0.13
same,"MTS assay result, run 8",[1]; 24 hours,0.142
same,"MTS assay result, run 9",[1]; 24 hours,0.143
same,rel amnt (relative value set to the control),[1]; 48 hours,83
same,"MTS assay result, run 1",[1]; 48 hours,0.131
same,"MTS assay result, run 2",[1]; 48 hours,0.133
same,"MTS assay result, run 3",[1]; 48 hours,0.12
same,"MTS assay result, run 4",[1]; 48 hours,0.12
same,"MTS assay result, run 5",[1]; 48 hours,0.126
same,"MTS assay result, run 6",[1]; 48 hours,0.119
same,"MTS assay result, run 7",[1]; 48 hours,0.12
same,"MTS assay result, run 8",[1]; 48 hours,0.142
same,"MTS assay result, run 9",[1]; 48 hours,0.127
same,rel amnt (relative value set to the control),[1]; 72 hours,132
same,"MTS assay result, run 1",[1]; 72 hours,0.667
same,"MTS assay result, run 2",[1]; 72 hours,0.615
same,"MTS assay result, run 3",[1]; 72 hours,0.61
same,"MTS assay result, run 4",[1]; 72 hours,0.587
same,"MTS assay result, run 5",[1]; 72 hours,0.582
same,"MTS assay result, run 6",[1]; 72 hours,0.491
same,"MTS assay result, run 7",[1]; 72 hours,0.52
same,"MTS assay result, run 8",[1]; 72 hours,0.604
same,"MTS assay result, run 9",[1]; 72 hours,0.584
same,rel amt (relative value set to the control),BXPC3 cells; 48 hours,95
same,"MTT assay result, av-blank",BXPC3 cells; 48 hours,0.216
same,"MTT assay result, av (average)",BXPC3 cells; 48 hours,0.265
same,"MTT assay result, run 1",BXPC3 cells; 48 hours,0.26
same,"MTT assay result, run 2",BXPC3 cells; 48 hours,0.255
same,"MTT assay result, run 3",BXPC3 cells; 48 hours,0.24
same,"MTT assay result, run 4",BXPC3 cells; 48 hours,0.263
same,"MTT assay result, run 5",BXPC3 cells; 48 hours,0.271
same,"MTT assay result, run 6",BXPC3 cells; 48 hours,0.277
same,"MTT assay result, run 7",BXPC3 cells; 48 hours,0.288
same,rel amt (relative value set to the control),BXPC3 cells; 120 hours (5 days),81
same,"MTT assay result, av-blank",BXPC3 cells; 120 hours (5 days),0.465
same,"MTT assay result, av",BXPC3 cells; 120 hours (5 days),0.520
same,"MTT assay result, run 1",BXPC3 cells; 120 hours (5 days),0.485
same,"MTT assay result, run 2",BXPC3 cells; 120 hours (5 days),0.49
same,"MTT assay result, run 3",BXPC3 cells; 120 hours (5 days),0.522
same,"MTT assay result, run 4",BXPC3 cells; 120 hours (5 days),0.539
same,"MTT assay result, run 5",BXPC3 cells; 120 hours (5 days),0.551
same,"MTT assay result, run 6",BXPC3 cells; 120 hours (5 days),0.523
same,"MTT assay result, run 7",BXPC3 cells; 120 hours (5 days),0.527
"Cc1c(C)c2c(c(C)c1OC(=O)CCC(=O)O)CC[C@@](C)(CCC[C@H](C)CCC[C@H](C)CCCC(C)C)O2 [TS, tocopherol succinate]",rel amt (relative value set to the control),MiaPaCa-2 cells; 48 hours,48
same,"MTT assay result, av-blank",MiaPaCa-2 cells; 48 hours,0.148
same,"MTT assay result, av",MiaPaCa-2 cells; 48 hours,0.194
same,"MTT assay result, run 1",MiaPaCa-2 cells; 48 hours,0.215
same,"MTT assay result, run 2",MiaPaCa-2 cells; 48 hours,0.184
same,"MTT assay result, run 3",MiaPaCa-2 cells; 48 hours,0.2
same,"MTT assay result, run 4",MiaPaCa-2 cells; 48 hours,0.187
same,"MTT assay result, run 5",MiaPaCa-2 cells; 48 hours,0.194
same,"MTT assay result, run 6",MiaPaCa-2 cells; 48 hours,0.19
same,"MTT assay result, run 7",MiaPaCa-2 cells; 48 hours,0.185
same,rel amt (relative value set to the control),MiaPaCa-2 cells; 120 hours (5 days),43
same,"MTT assay result, av-blank",MiaPaCa-2 cells; 120 hours (5 days),0.773
same,"MTT assay result, av",MiaPaCa-2 cells; 120 hours (5 days),0.825
same,"MTT assay result, run 1",MiaPaCa-2 cells; 120 hours (5 days),0.732
same,"MTT assay result, run 2",MiaPaCa-2 cells; 120 hours (5 days),0.776
same,"MTT assay result, run 3",MiaPaCa-2 cells; 120 hours (5 days),0.786
same,"MTT assay result, run 4",MiaPaCa-2 cells; 120 hours (5 days),0.714
same,"MTT assay result, run 5",MiaPaCa-2 cells; 120 hours (5 days),0.939
same,"MTT assay result, run 6",MiaPaCa-2 cells; 120 hours (5 days),0.859
same,"MTT assay result, run 7",MiaPaCa-2 cells; 120 hours (5 days),0.968
same,rel amnt (relative value set to the control),[1]; 24 hours,110
same,"MTS assay result, run 1",[1]; 24 hours,0.155
same,"MTS assay result, run 2",[1]; 24 hours,0.168
same,"MTS assay result, run 3",[1]; 24 hours,0.164
same,"MTS assay result, run 4",[1]; 24 hours,0.158
same,"MTS assay result, run 5",[1]; 24 hours,0.155
same,"MTS assay result, run 6",[1]; 24 hours,0.163
same,"MTS assay result, run 7",[1]; 24 hours,0.165
same,"MTS assay result, run 8",[1]; 24 hours,0.167
same,"MTS assay result, run 9",[1]; 24 hours,0.162
same,rel amnt (relative value set to the control),[1]; 48 hours,104
same,"MTS assay result, run 1",[1]; 48 hours,0.122
same,"MTS assay result, run 2",[1]; 48 hours,0.166
same,"MTS assay result, run 3",[1]; 48 hours,0.16
same,"MTS assay result, run 4",[1]; 48 hours,0.135
same,"MTS assay result, run 5",[1]; 48 hours,0.148
same,"MTS assay result, run 6",[1]; 48 hours,0.174
same,"MTS assay result, run 7",[1]; 48 hours,0.18
same,"MTS assay result, run 8",[1]; 48 hours,0.173
same,"MTS assay result, run 9",[1]; 48 hours,0.157
same,rel amnt (relative value set to the control),[1]; 72 hours,207
same,"MTS assay result, run 1",[1]; 72 hours,0.998
same,"MTS assay result, run 2",[1]; 72 hours,0.962
same,"MTS assay result, run 3",[1]; 72 hours,1.02
same,"MTS assay result, run 4",[1]; 72 hours,0.887
same,"MTS assay result, run 5",[1]; 72 hours,0.936
same,"MTS assay result, run 6",[1]; 72 hours,0.897
same,"MTS assay result, run 7",[1]; 72 hours,0.85
same,"MTS assay result, run 8",[1]; 72 hours,0.801
same,"MTS assay result, run 9",[1]; 72 hours,0.918
same,rel amt (relative value set to the control),BXPC3 cells; 48 hours,100
same,"MTT assay result, av-blank",BXPC3 cells; 48 hours,0.229
same,"MTT assay result, av (average)",BXPC3 cells; 48 hours,0.278
same,"MTT assay result, run 1",BXPC3 cells; 48 hours,0.271
same,"MTT assay result, run 2",BXPC3 cells; 48 hours,0.274
same,"MTT assay result, run 3",BXPC3 cells; 48 hours,0.296
same,"MTT assay result, run 4",BXPC3 cells; 48 hours,0.271
same,"MTT assay result, run 5",BXPC3 cells; 48 hours,0.282
same,"MTT assay result, run 6",BXPC3 cells; 48 hours,0.274
same,"MTT assay result, run 7",BXPC3 cells; 48 hours,0.277
same,rel amt (relative value set to the control),BXPC3 cells; 120 hours (5 days),17
same,"MTT assay result, av-blank",BXPC3 cells; 120 hours (5 days),0.097
same,"MTT assay result, av",BXPC3 cells; 120 hours (5 days),0.152
same,"MTT assay result, run 1",BXPC3 cells; 120 hours (5 days),0.192
same,"MTT assay result, run 2",BXPC3 cells; 120 hours (5 days),0.127
same,"MTT assay result, run 3",BXPC3 cells; 120 hours (5 days),0.142
same,"MTT assay result, run 4",BXPC3 cells; 120 hours (5 days),0.162
same,"MTT assay result, run 5",BXPC3 cells; 120 hours (5 days),0.116
same,"MTT assay result, run 6",BXPC3 cells; 120 hours (5 days),0.129
same,"MTT assay result, run 7",BXPC3 cells; 120 hours (5 days),0.199
